{
  "source": "patent US20250215029A1",
  "about": "(Recludix Pharma, Inc., priority 2022, published 2025)",
  "note": "pIC50: −log10 of the molar value.",
  "data": [
    {"target": "T1, pY641-STAT6 in PBMC (Homo sapiens, UniProt P42226)", "T1 construct": "Cryopreserved Peripheral Blood Mononuclear Cells (PBMC) are from AllCells; host or cells: cryopreserved PBMC", "T1 sequence (P42226 1-847)": "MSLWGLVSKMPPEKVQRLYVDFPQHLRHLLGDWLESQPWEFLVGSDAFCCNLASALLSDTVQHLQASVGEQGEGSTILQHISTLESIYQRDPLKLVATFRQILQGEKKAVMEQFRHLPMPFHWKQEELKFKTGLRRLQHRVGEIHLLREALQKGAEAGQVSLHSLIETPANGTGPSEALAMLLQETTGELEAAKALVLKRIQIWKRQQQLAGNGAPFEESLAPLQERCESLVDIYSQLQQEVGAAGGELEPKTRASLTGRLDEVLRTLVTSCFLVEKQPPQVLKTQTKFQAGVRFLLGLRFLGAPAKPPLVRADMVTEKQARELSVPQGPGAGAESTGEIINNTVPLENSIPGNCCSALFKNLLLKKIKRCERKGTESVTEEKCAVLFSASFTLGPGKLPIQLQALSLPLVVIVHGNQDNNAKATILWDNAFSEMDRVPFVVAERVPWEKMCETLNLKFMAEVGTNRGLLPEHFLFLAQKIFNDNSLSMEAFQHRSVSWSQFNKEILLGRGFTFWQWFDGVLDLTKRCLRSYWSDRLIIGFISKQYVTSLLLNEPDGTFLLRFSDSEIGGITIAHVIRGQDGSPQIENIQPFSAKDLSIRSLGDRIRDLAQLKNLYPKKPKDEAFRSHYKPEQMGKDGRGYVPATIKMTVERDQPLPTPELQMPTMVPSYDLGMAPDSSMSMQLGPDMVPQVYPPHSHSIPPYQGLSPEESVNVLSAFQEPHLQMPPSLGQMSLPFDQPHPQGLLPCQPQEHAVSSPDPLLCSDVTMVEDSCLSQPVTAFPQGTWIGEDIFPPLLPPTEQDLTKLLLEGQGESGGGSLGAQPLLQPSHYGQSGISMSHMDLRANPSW", "experiment": "MSD-pSTAT-PBMC Assay (pSTAT6, IL-4 stimulated)", "assay_type": "cell-based", "conditions": "PBMC, compound 3 hrs, then 1 ng/mL IL-4 for 10 min; Table 115; read-out: STAT6", "procedure,_shortened": "(§1)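 MSD electrochemiluminescence read-out: total STAT captured, probed with anti-pY641-STAT6 or anti-pY705-STAT3. Human PBMC, 3 h compound pretreatment, 10 min stimulation (IL-4 1 ng/mL or IL-6 10 ng/mL). Unstimulated signal subtracted, DMSO-normalized, variable-slope IC50.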", "values": [
      {"molecule": "CC(C)OC(=O)OCOP(=O)(OCCSC(=O)C(C)(C)C)C(F)(F)c1ccc2sc(C(=O)N[C@H]3CCCC[C@H]4CC[C@@H](C(=O)N5C[C@@H](C#N)[C@H](c6ccccc6)C5)N4C3=O)cc2c1", "note": "(single isomer, unassigned) [Compound 1012]", "pIC50": "> 7.00"},
      {"molecule": "CCCOC(=O)[C@H](C)NP(=O)(Oc1ccccc1)[C@@H](F)c1ccc2sc(C(=O)N[C@H]3CCCC[C@H]4CC[C@@H](C(=O)N5C[C@H](c6cccnc6)[C@@H](C#N)C56CC6)N4C3=O)cc2c1", "note": "(stereo partly shown) [Compound 364]", "pIC50": "> 7.00"},
      {"molecule": "CCCOC(=O)[C@H](C)NP(=O)(Oc1ccccc1)[C@@H](F)c1ccc2sc(C(=O)N[C@H]3CCCC[C@H]4CC[C@@H](C(=O)N5C[C@H](c6cccc(Cl)c6)[C@@H](C#N)C56CC6)N4C3=O)cc2c1", "note": "(stereo partly shown) [Compound 344]", "pIC50": "> 7.00"},
      {"molecule": "(4-methyl- 112,212,4- triazolidin-3- yl)methyl (((1R)- fluoro(2- (((3S,6S,9aS)-5- oxo-3-((R)-6- (pyridin-3-yl)-4- azaspiro[2.4]heptane- 4- carbonyl)octahydro- 1H-pyrrolo[1,2- a]azepin-6- yl)carbamoyl)-2,3- dihydrobenzo[b] thiophen-5- yl)methyl)(phenoxy) phosphoryl)-L- alaninate [Compound 373]", "pIC50": "< 5.52"}
    ]},
    {"target": "T1, pY641-STAT6 in PBMC", "experiment": "MSD-pSTAT-PBMC Assay (pSTAT6, IL-4 stimulated)", "assay_type": "cell-based", "conditions": "STAT6, PBMC, compound 3 hrs, then 1 ng/mL IL-4 for 10 min; Table 115", "procedure,_shortened": "as §1", "values": [
      {"molecule": "CCCOC(=O)[C@H](C)NP(=O)(Oc1ccccc1)[C@@H](F)c1ccc2sc(C(=O)N[C@H]3CCC[C@H]4CC[C@@H](C(=O)N5C[C@H](c6ccc(C)cc6)[C@@H](C#N)C56CC6)N4C3=O)cc2c1", "note": "(single isomer, unassigned) [Compound 478]", "pIC50": "> 7.00"},
      {"molecule": "CCCOC(=O)[C@H](C)NP(=O)(Oc1c(C)cccc1C)[C@H](F)c1ccc2sc(C(=O)N[C@H]3CCC[C@H]4CC[C@@H](C(=O)N5C[C@@H](c6cccnc6)CC56CC6)N4C3=O)cc2c1", "note": "(stereo partly drawn) [Compound 359, propyl ((2,6-dimethylphenoxy) ((S)-fluoro(2-(((3S,6S,9aS)-5-oxo-3-((R)-6-(pyridin-3-yl)-4-azaspiro[2.4]heptane-4-carbonyl)octahydro-1H-pyrrolo[1,2-a]azepin-6-yl)carbamoyl)benzo [b]thiophen-5-yl)methyl)phosphoryl)-L-alaninate]", "pIC50": "> 7.00"},
      {"molecule": "CCCOC(=O)[C@H](C)NP(=O)(Oc1ccccc1)[C@@H](F)c1ccc2sc(C(=O)N[C@H]3CCCC[C@H]4CC[C@@H](C(=O)N5C[C@H](c6cncc(OC)c6)[C@@H](C#N)C56CC6)N4C3=O)cc2c1", "note": "(single isomer, unassigned) [Compound 372]", "pIC50": "< 5.52"},
      {"molecule": "CCCOC(=O)[C@H](C)NP(=O)(Oc1ccccc1)[C@H](F)c1ccc2ccc(C(=O)N[C@H]3CCCC[C@H]4CC[C@@H](C(=O)N5C[C@H](c6ccccc6)[C@@H](C#N)C56CC6)N4C3=O)cc2c1", "note": "(stereo partly drawn) [Compound 347, propyl (((S)-(7-(((3S,6S,10aS)-3-((6S,7R)-7-cyano-6-phenyl-4-azaspiro[2.4]heptane-4-carbonyl)-5-oxodecahydropyrrolo [1,2-a]azocin-6-yl)carbamoyl)naphthalen-2-yl)fluoromethyl) (phenoxy)phosphoryl)-L-alaninate]", "pIC50": "> 7.00"},
      {"molecule": "CCCOC(=O)[C@H](C)NP(=O)(Oc1ccccc1)C(F)c1ccc2ccc(C(=O)N[C@H]3CCCC[C@H]4CC[C@@H](C(=O)N5C[C@H](c6ccn(C)c(=O)c6)CC56CC6)N4C3=O)cc2c1", "note": "(stereo partly drawn) [Compound 443, propyl ((fluoro(7-(((3S,6S,10aS)-3-((S)-6-(1-methyl-2-oxo-1,2-dihydropyridin-4-yl)-4-azaspiro[2.4]heptane-4-carbonyl)-5-oxodecahydropyrrolo [1,2-a]azocin-6-yl)carbamoyl)naphthalen-2-yl)methyl)(phenoxy)phosphoryl)-L-alaninate]", "pIC50": "6.00 to 7.00"},
      {"molecule": "CCCOC(=O)[C@H](C)NP(=O)(Oc1ccccc1)C(F)c1ccc2sc(C(=O)N[C@H]3CCCC[C@H]4CC[C@@H](C(=O)N5C(=O)N(c6ccn(C(C)C)c(=O)c6)C(=O)C56CC6)N4C3=O)cc2c1", "note": "(stereo partly drawn) [Compound 981, propyl ((fluoro(2-(((3S,6S,10aS)-3-(6-(1-isopropyl-2-oxo-1,2-dihydropyridin-4-yl)-5,7-dioxo-4,6-diazaspiro [2.4]heptane-4-carbonyl)-5-oxodecahydropyrrolo [1,2-a]azocin-6-yl)carbamoyl)benzo [b]thiophen-5-yl)methyl)(phenoxy)phosphoryl)-L-alaninate]", "pIC50": "< 5.52"},
      {"molecule": "CCCOC(=O)[C@H](C)NP(=O)(Oc1ccccc1)C(F)c1ccc2ccc(C(=O)N[C@H]3CCCC[C@H]4CC[C@@H](C(=O)N5C[C@@H](c6ccn(C)c(=O)c6)CC56CC6)N4C3=O)cc2c1", "note": "(stereo partly drawn) [Compound 441, propyl ((fluoro(7-(((3S,6S,10aS)-3-((R)-6-(1-methyl-2-oxo-1,2-dihydropyridin-4-yl)-4-azaspiro[2.4]heptane-4-carbonyl)-5-oxodecahydropyrrolo [1,2-a]azocin-6-yl)carbamoyl)naphthalen-2-yl)methyl)(phenoxy)phosphoryl)-L-alaninate]", "pIC50": "> 7.00"},
      {"molecule": "CCCOC(=O)[C@H](C)NP(=O)(Oc1ccccc1)[C@@H](F)c1ccc2sc(C(=O)N[C@H]3CCCC[C@H]4CC[C@@H](C(=O)N5C[C@H](c6cncc(Cl)c6)[C@@H](C#N)C56CC6)N4C3=O)cc2c1", "note": "(single isomer, unassigned) [Compound 371]", "pIC50": "5.52 to 6.00"},
      {"molecule": "CC(C)OC(=O)[C@H](C)NP(=O)(Cc1ccc2ccc(C(=O)N[C@H]3CCCC[C@H]4CC[C@@H](C(=O)N5C[C@@H](c6cc[nH]c(=O)c6)CC56CC6)N4C3=O)cc2c1)Oc1ccccc1", "note": "(stereo partly drawn) [Compound 424, isopropyl (((7-(((3S,6S,10aS)-5-oxo-3-((R)-6-(2-oxo-1,2-dihydropyridin-4-yl)-4-azaspiro[2.4]heptane-4-carbonyl)decahydropyrrolo[1,2-a]azocin-6-yl)carbamoyl)naphthalen-2-yl)methyl)(phenoxy)phosphoryl)-L-alaninate]", "pIC50": "6.00 to 7.00"},
      {"molecule": "CCCOC(=O)[C@H](C)NP(=O)(Oc1ccccc1)C(F)c1ccc2ccc(C(=O)N[C@H]3CCC[C@H]4CC[C@@H](C(=O)N5CC(c6cccnc6)CC56CC6)N4C3=O)cc2c1", "note": "(stereo partly drawn) [Compound 453, propyl ((fluoro(7-(((3S,6S,9aS)-5-oxo-3-(6-(pyridin-3-yl)-4-azaspiro[2.4]heptane-4-carbonyl)octahydro-1H-pyrrolo[1,2-a]azepin-6-yl)carbamoyl)naphthalen-2-yl)methyl)(phenoxy)phosphoryl)-L-alaninate]", "pIC50": "6.00 to 7.00"},
      {"molecule": "CCCOC(=O)[C@H](C)NP(=O)(Oc1ccccc1)[C@@H](F)c1ccc2sc(C(=O)N[C@H]3CCCC[C@H]4CC[C@@H](C(=O)N5C[C@@H](c6cccc(C(F)F)c6)[C@H](C#N)C56CC6)N4C3=O)cc2c1", "note": "(single isomer, unassigned) [Compound 482]", "pIC50": "> 7.00"},
      {"molecule": "CCCOC(=O)[C@H](C)NP(=O)(Oc1ccccc1)C(C)(F)c1ccc2sc(C(=O)N[C@H]3CCCC[C@H]4CC[C@@H](C(=O)N5CCC(c6cccnc6)C5)N4C3=O)cc2c1", "note": "(stereo partly drawn) [Compound 314, propyl ((1-fluoro-1-(2-(((3S,6S,10aS)-5-oxo-3-(3-(pyridin-3-yl)pyrrolidine-1-carbonyl)decahydropyrrolo[1,2-a]azocin-6-yl)carbamoyl)benzo [b]thiophen-5-yl)ethyl)(phenoxy)phosphoryl)-L-alaninate]", "pIC50": "< 5.52"},
      {"molecule": "C[C@H](NP(=O)(Oc1ccccc1)[C@@H](F)c1ccc2sc(C(=O)N[C@H]3CCCC[C@H]4CC[C@@H](C(=O)N5C[C@@H](c6cccnc6)CC56CC6)N4C3=O)cc2c1)C(=O)OCC1(C)COC1", "note": "(stereo partly drawn) [Compound 386, (3-methyloxetan-3-yl)methyl (((R)-fluoro(2-(((3S,6S,10aS)-5-oxo-3-((R)-6-(pyridin-3-yl)-4-azaspiro[2.4]heptane-4-carbonyl)decahydropyrrolo[1,2-a]azocin-6-yl)carbamoyl)benzo [b]thiophen-5-yl)methyl)(phenoxy)phosphoryl)-L-alaninate]", "pIC50": "> 7.00"},
      {"molecule": "CCCOC(=O)[C@H](C)NP(=O)(Oc1ccccc1)C(F)c1ccc2sc(C(=O)N[C@H]3CCCC[C@H]4CC[C@@H](C(=O)N5CC(c6cccnc6)CC56CC6)N4C3=O)cc2c1", "note": "(stereo partly drawn) [Compound 448, propyl ((fluoro(2-(((3S,6S,10aS)-5-oxo-3-(6-(pyridin-3-yl)-4-azaspiro[2.4]heptane-4-carbonyl)decahydropyrrolo[1,2-a]azocin-6-yl)carbamoyl)benzo [b]thiophen-5-yl)methyl)(phenoxy)phosphoryl)-L-alaninate]", "pIC50": "> 7.00"},
      {"molecule": "CCCOC(=O)[C@H](C)NP(=O)(Oc1ccccc1)[C@@H](F)c1ccc2sc(C(=O)N[C@H]3CCCC[C@H]4CC[C@@H](C(=O)N5C[C@H](c6cccc(C#N)c6)[C@@H](C#N)C56CC6)N4C3=O)cc2c1", "note": "(single isomer, unassigned) [Compound 339]", "pIC50": "> 7.00"}
    ]}
  ]
}
